Source: PubChem BioAssay AID1963439 (Molecular Pharmacology Branch, DTP, NCI, 2024)
Several values for one entry are separate records, joined by “and”; a condition that tells them apart may be missing. Equal values may be shown once.

System: NCI-H196 complex spheroids with HUVEC/MSC, growth % T/C
Test: Anticancer human tumor NCI-H196 cell line growth inhibition [Asc];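 note: spheroids exposed to compound for 7 days before measurement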;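 for viability, T/C: 100% = DMSO vehicle control wells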
Details: for viability, T/C: stronger effect = lower value
In short: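 Tumor cells were grown as multicellular spheroids with stromal HUVEC and mesenchymal stem cells and treated singly or in combination. Concentrations fell in half-log steps from the clinical Cmax, or from 10 microM where none was known.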

[1] = curve of first compound, second compound 0.1 µM
[2] = curve of first compound, second compound 0.316 µM
[3] = curve of first compound, second compound 1 µM

Which results are given for NC(=O)C(=Cn1cnc(-c2cc(C(F)(F)F)cc(C(F)(F)F)c2)n1)c1cncnc1 + CNC(C)C(=O)NC1CN(S(=O)(=O)c2cccc(S(=O)(=O)N3CCC4CCC(C(=O)NC(c5ccccc5)c5ccccc5)N4C(=O)C(NC(=O)C(C)NC)C3)c2)CCC2CCC(C(=O)NC(c3ccccc3)c3ccccc3)N2C1=O?
IC50 (curve of first compound, second compound 0.01 µM): < 0.949 nM; IC50 (curve of first compound, second compound 0.0316 µM): < 0.949 nM; IC50 [1]: < 0.949 nM; IC50 [2]: < 0.949 nM; IC50 [3]: < 0.949 nM; viability, T/C (second compound 0.01 µM, first compound 0.000949 µM): 9.08%; viability, T/C (second compound 0.01 µM, first compound 0.003 µM): 6.89%; viability, T/C (second compound 0.01 µM, first compound 0.00949 µM): 9.23%; viability, T/C (second compound 0.01 µM, first compound 0.03 µM): 5%; viability, T/C (second compound 0.01 µM, first compound 0.0949 µM): 6.27%; viability, T/C (second compound 0.01 µM, first compound 0.3 µM): 3.41%; viability, T/C (second compound 0.0316 µM, first compound 0.000949 µM): 5.94%; viability, T/C (second compound 0.0316 µM, first compound 0.003 µM): 4.91%; viability, T/C (second compound 0.0316 µM, first compound 0.00949 µM): 5.48%; viability, T/C (second compound 0.0316 µM, first compound 0.03 µM): 5.12%; viability, T/C (second compound 0.0316 µM, first compound 0.0949 µM): 4.08%; viability, T/C (second compound 0.0316 µM, first compound 0.3 µM): 1.99%; viability, T/C (second compound 0.1 µM, first compound 0.000949 µM): 3.66%; viability, T/C (second compound 0.1 µM, first compound 0.003 µM): 3.77%; viability, T/C (second compound 0.1 µM, first compound 0.00949 µM): 3.89%; viability, T/C (second compound 0.1 µM, first compound 0.03 µM): 4.03%; viability, T/C (second compound 0.1 µM, first compound 0.0949 µM): 3.01%; viability, T/C (second compound 0.1 µM, first compound 0.3 µM): 1.56%; viability, T/C (second compound 0.316 µM, first compound 0.000949 µM): 3.76%; viability, T/C (second compound 0.316 µM, first compound 0.003 µM): 2.6%; viability, T/C (second compound 0.316 µM, first compound 0.00949 µM): 3.46%; viability, T/C (second compound 0.316 µM, first compound 0.03 µM): 3.21%; viability, T/C (second compound 0.316 µM, first compound 0.0949 µM): 1.59%; viability, T/C (second compound 0.316 µM, first compound 0.3 µM): 1.68%; viability, T/C (second compound 1 µM, first compound 0.000949 µM): 2.91%; viability, T/C (second compound 1 µM, first compound 0.003 µM): 3.81%; viability, T/C (second compound 1 µM, first compound 0.00949 µM): 3.53%; viability, T/C (second compound 1 µM, first compound 0.03 µM): 5.05%; viability, T/C (second compound 1 µM, first compound 0.0949 µM): 2.15%; viability, T/C (second compound 1 µM, first compound 0.3 µM): 1.55%

With Cn1ncnc1[C@H]1c2n[nH]c(=O)c3cc(F)cc(c23)N[C@@H]1c1ccc(F)cc1 + Cc1c(S(C)(=O)=O)c(-c2cc(F)cc(N3CCN(c4ccc(NS(=O)(=O)c5ccc(NC(CCN6CCC(C(=O)OCCCP(=O)(O)O)CC6)CSc6ccccc6)c(S(=O)(=O)C(F)(F)F)c5)cc4)CC3)c2)c(-c2ccc(Cl)cc2)n1C(C)C as the compound, how does the IC50 [1] read?
Its IC50 is > 100 nM.

What about the IC50 [2] of the same compound?
The IC50 was > 100 nM.

And the IC50 [3]?
Its IC50 is > 100 nM.

What about the IC50 (curve of first compound, second compound 3.16 µM) of the same compound?
Its IC50 is > 100 nM.

And the IC50 (curve of first compound, second compound 10 µM)?
Its IC50 is > 100 nM.

And the viability, T/C (second compound 0.1 µM, first compound 0.000316 µM)?
The viability, T/C was 107%.

What about the viability, T/C (second compound 0.1 µM, first compound 0.001 µM) of the same compound?
Its viability, T/C is 101%.

What about the viability, T/C (second compound 0.1 µM, first compound 0.00316 µM) of the same compound?
The viability, T/C was 102%.

And the viability, T/C (second compound 0.1 µM, first compound 0.01 µM)?
The viability, T/C was 101%.

And the viability, T/C (second compound 0.1 µM, first compound 0.0316 µM)?
Its viability, T/C is 94.8%.

And the viability, T/C (second compound 0.1 µM, first compound 0.1 µM)?
Its viability, T/C is 98.4%.

What about the viability, T/C (second compound 0.316 µM, first compound 0.000316 µM) of the same compound?
The viability, T/C was 102%.

What about the viability, T/C (second compound 0.316 µM, first compound 0.001 µM) of the same compound?
Its viability, T/C is 105%.

And the viability, T/C (second compound 0.316 µM, first compound 0.00316 µM)?
Its viability, T/C is 107%.

And the viability, T/C (second compound 0.316 µM, first compound 0.01 µM)?
Its viability, T/C is 95.2%.

What about the viability, T/C (second compound 0.316 µM, first compound 0.0316 µM) of the same compound?
Its viability, T/C is 89%.

And the viability, T/C (second compound 0.316 µM, first compound 0.1 µM)?
The viability, T/C was 93.4%.

And the viability, T/C (second compound 1 µM, first compound 0.000316 µM)?
Its viability, T/C is 97%.

What about the viability, T/C (second compound 1 µM, first compound 0.001 µM) of the same compound?
The viability, T/C was 94.9%.

What about the viability, T/C (second compound 1 µM, first compound 0.00316 µM) of the same compound?
Its viability, T/C is 94.5%.

What about the viability, T/C (second compound 1 µM, first compound 0.01 µM) of the same compound?
Its viability, T/C is 95.7%.

And the viability, T/C (second compound 1 µM, first compound 0.0316 µM)?
The viability, T/C was 86.2%.

What about the viability, T/C (second compound 1 µM, first compound 0.1 µM) of the same compound?
The viability, T/C was 94%.

And the viability, T/C (second compound 3.16 µM, first compound 0.000316 µM)?
The viability, T/C was 93.1%.

What about the viability, T/C (second compound 3.16 µM, first compound 0.001 µM) of the same compound?
Its viability, T/C is 84.4%.

And the viability, T/C (second compound 3.16 µM, first compound 0.00316 µM)?
The viability, T/C was 78.5%.

What about the viability, T/C (second compound 3.16 µM, first compound 0.01 µM) of the same compound?
Its viability, T/C is 79.1%.

And the viability, T/C (second compound 3.16 µM, first compound 0.0316 µM)?
The viability, T/C was 80.1%.

What about the viability, T/C (second compound 3.16 µM, first compound 0.1 µM) of the same compound?
The viability, T/C was 80.1%.

What about the viability, T/C (second compound 10 µM, first compound 0.000316 µM) of the same compound?
The viability, T/C was 77.2%.

And the viability, T/C (second compound 10 µM, first compound 0.001 µM)?
The viability, T/C was 85%.

What about the viability, T/C (second compound 10 µM, first compound 0.00316 µM) of the same compound?
Its viability, T/C is 78.7%.

What about the viability, T/C (second compound 10 µM, first compound 0.01 µM) of the same compound?
The viability, T/C was 73.9%.

And the viability, T/C (second compound 10 µM, first compound 0.0316 µM)?
Its viability, T/C is 62.8%.

And the viability, T/C (second compound 10 µM, first compound 0.1 µM)?
Its viability, T/C is 66.8%.

For Cc1nc(N2CCC3(CC2)COC(C)C3N)c(CO)nc1Sc1ccnc(N)c1Cl (configuration not stated), which viability, T/C (compound 0.00949 µM) is on record?
Its viability, T/C is 108% and 110% and 98.4%.

And the viability, T/C (compound 0.03 µM)?
Its viability, T/C is 142% and 106% and 101%.

What about the viability, T/C (compound 0.0949 µM) of the same compound?
Its viability, T/C is 106% and 99% and 102%.

What about the viability, T/C (compound 0.3 µM) of the same compound?
The viability, T/C was 86.8% and 96.3% and 92.5%.

And the viability, T/C (compound 0.949 µM)?
The viability, T/C was 43% and 63.5% and 67.1%.

What about the viability, T/C (compound 3 µM) of the same compound?
Its viability, T/C is 13.2% and 30.9% and 37.1%.

And the IC50 (curve of compound)?
The IC50 was 777 nM and 1550 nM and 1820 nM.

What does the source list for NC(=O)C(=Cn1cnc(-c2cc(C(F)(F)F)cc(C(F)(F)F)c2)n1)c1cncnc1 + CCN1C(C(=O)NC23CCC(C(=O)O)(CC2)CC3)C(c2cccc(Cl)c2F)C2(C(=O)Nc3cc(Cl)ccc32)C12CCCCC2?
IC50 (curve of first compound, second compound 0.03 µM): 22.1 nM; IC50 (curve of first compound, second compound 0.0949 µM): 24.3 nM; IC50 (curve of first compound, second compound 0.3 µM): 26.2 nM; IC50 (curve of first compound, second compound 0.949 µM): 26.4 nM; IC50 (curve of first compound, second compound 3 µM): 26.8 nM; viability, T/C (second compound 0.03 µM, first compound 0.000949 µM): 110%; viability, T/C (second compound 0.03 µM, first compound 0.003 µM): 99.3%; viability, T/C (second compound 0.03 µM, first compound 0.00949 µM): 79.1%; viability, T/C (second compound 0.03 µM, first compound 0.03 µM): 41.6%; viability, T/C (second compound 0.03 µM, first compound 0.0949 µM): 7.35%; viability, T/C (second compound 0.03 µM, first compound 0.3 µM): 4.55%; viability, T/C (second compound 0.0949 µM, first compound 0.000949 µM): 100%; viability, T/C (second compound 0.0949 µM, first compound 0.003 µM): 103%; viability, T/C (second compound 0.0949 µM, first compound 0.00949 µM): 85.2%; viability, T/C (second compound 0.0949 µM, first compound 0.03 µM): 42.6%; viability, T/C (second compound 0.0949 µM, first compound 0.0949 µM): 8.3%; viability, T/C (second compound 0.0949 µM, first compound 0.3 µM): 3.76%; viability, T/C (second compound 0.3 µM, first compound 0.000949 µM): 108%; viability, T/C (second compound 0.3 µM, first compound 0.003 µM): 101%; viability, T/C (second compound 0.3 µM, first compound 0.00949 µM): 90.4%; viability, T/C (second compound 0.3 µM, first compound 0.03 µM): 46.1%; viability, T/C (second compound 0.3 µM, first compound 0.0949 µM): 4.78%; viability, T/C (second compound 0.3 µM, first compound 0.3 µM): 5.31%; viability, T/C (second compound 0.949 µM, first compound 0.000949 µM): 116%; viability, T/C (second compound 0.949 µM, first compound 0.003 µM): 109%; viability, T/C (second compound 0.949 µM, first compound 0.00949 µM): 93.1%; viability, T/C (second compound 0.949 µM, first compound 0.03 µM): 46.6%; viability, T/C (second compound 0.949 µM, first compound 0.0949 µM): 4.71%; viability, T/C (second compound 0.949 µM, first compound 0.3 µM): 5.06%; viability, T/C (second compound 3 µM, first compound 0.000949 µM): 124%; viability, T/C (second compound 3 µM, first compound 0.003 µM): 119%; viability, T/C (second compound 3 µM, first compound 0.00949 µM): 106%; viability, T/C (second compound 3 µM, first compound 0.03 µM): 44.6%; viability, T/C (second compound 3 µM, first compound 0.0949 µM): 3.65%; viability, T/C (second compound 3 µM, first compound 0.3 µM): 4.05%
